According to patent US4490370A, “Naphthylglycyl cephalosporin derivatives” (priority 1983, dated 1984):
In brackets after ≈: the same amount, converted by molar mass. Counter-ions that a name gives are not always drawn. Like-named read-outs stand apart in the source and are kept apart here.

Tests used:
Assay type in all cases: cell-based
Staph. aureus = assay: Agar dilution MIC, Staph. aureus
Text: (§1) The following Tables present typical minimum inhibitory concentrations (MIC's) in μg/ml for the compounds when evaluated against the indicated microorganisms.

Staph. epi = assay: Agar dilution MIC, Staph. epi
Text: as §1

Strep. A = assay: Agar dilution MIC, Strep. A; details: Table I, strain C203
Text: (§2) A typical and preferred compound provided by this invention is 7-(2-naphthylglycylamido)-3-methyl-3-cephem-4-carboxylic acid, the compound of Example 3. The antibacterial activity of this compound and several others of the invention has been determined in standard in vitro agar dilution assays against a variety of gram positive microorganisms. The following Tables present typical minimum inhibitory concentrations (MIC's) in μg/ml for the compounds when evaluated against the indicated microorganisms. MIC's for several known compounds are also presented for comparison.

Strep. PN = assay: Agar dilution MIC, Strep. PN; details: Table I, strain PARK; read-out: MIC
Text: as §1

H. influ. = assay: Agar dilution MIC, H. influenza
Text: as §1

Klebsiella = assay: Agar dilution MIC, Klebsiella; details: Table I, strain X26
Text: as §2

[1] = Staphylococcus aureus, Table I, strain S13E
[2] = Staphylococcus aureus, Table I, strain V41, read-out: MIC
[3] = Staphylococcus aureus, Table I, strain X1.1, read-out: MIC
[4] = Table I, strain 222, read-out: MIC
[5] = Table I, strain EPI1, read-out: MIC
[6] = Table I, strain 251, read-out: MIC
[7] = Table I, strain BRUN, read-out: MIC

## COC1=C(C(=O)O)N2C(=O)C(NC(=O)C(N)c3ccc4ccccc4c3)C2SC1 (racemic) [Example 6, 7-(2-Naphthylglycylamido)-3-methoxy-3-cephem-4-carboxylic acid trifluoroacetate]
Staph. aureus; [1]
  MIC: 32 µg/mL
Staph. aureus; [2]
  MIC: 32 µg/mL
Staph. aureus; [3]
  MIC: 1 µg/mL
Staph. epi; [4]
  MIC: 2 µg/mL
Staph. epi; [5]
  MIC: 8 µg/mL
Strep. A; read-out: MIC
  MIC: 0.125 µg/mL
Strep. PN
  MIC: > 138 µg/mL
H. influ.; [6]
  MIC: 32 µg/mL
Klebsiella; Klebsiella, read-out: MIC
  MIC: 8 µg/mL

## N[C@H](C(=O)N[C@@H]1C(=O)N2C(C(=O)O)=C(Cl)CS[C@H]12)c1ccc2ccccc2c1 [Ex. 5B, L-7-(2-naphthylglycylamido)-3-chloro-3-cephem-4-carboxylic acid]
Staph. aureus; Table I, strain X1.1
  MIC: 8 µg/mL (≈ 19.1 µM)
Staph. epi; Table I, strain 222
  MIC: 4 µg/mL (≈ 9.57 µM)
Staph. epi; Table I, strain EPI1
  MIC: 32 µg/mL (≈ 76.6 µM)
Strep. A
  MIC: 4 µg/mL (≈ 9.57 µM)
H. influ.; Table I, strain 251
  MIC: 16 µg/mL (≈ 38.3 µM)
Klebsiella
  MIC: 2 µg/mL (≈ 4.79 µM)

## CC1=C(C(=O)O)N2C(=O)C(NC(=O)[C@H](N)c3ccc4cc(Cl)ccc4c3)C2SC1 (stereo partly drawn) [Example 7, D-7-(6-chloronaphth-2-ylglycylamido)-3-methyl-3-cephem-4-carboxylic acid]
Staph. aureus; [2]
  MIC: 8 µg/mL (≈ 18.5 µM)
Staph. aureus; [3]
  MIC: 0.25 µg/mL (≈ 0.579 µM)
Staph. aureus; Staphylococcus aureus, Table I, strain X400, read-out: MIC
  MIC: 64 µg/mL (≈ 148 µM)
Staph. aureus; Staphylococcus aureus, Table II, strain S224, read-out: MIC
  MIC: 0.5 µg/mL (≈ 1.16 µM)
Staph. aureus; Staphylococcus aureus, Table II, strain S225, read-out: MIC
  MIC: 0.5 µg/mL (≈ 1.16 µM)
Staph. aureus; Staphylococcus aureus, Table II, strain S226, read-out: MIC
  MIC: 1 µg/mL (≈ 2.32 µM)
Staph. aureus; Staphylococcus aureus, Table II, strain S227, read-out: MIC
  MIC: 0.5 µg/mL (≈ 1.16 µM)
Staph. aureus; Staphylococcus aureus, Table II, strain S228, read-out: MIC
  MIC: 0.5 µg/mL (≈ 1.16 µM)
Staph. aureus; Staphylococcus aureus, Table II, strain S229, read-out: MIC
  MIC: 1 µg/mL (≈ 2.32 µM)
Staph. aureus; Staphylococcus aureus, Table II, strain S230, read-out: MIC
  MIC: 0.5 µg/mL (≈ 1.16 µM)
Staph. aureus; Staphylococcus aureus, Table II, strain S231, read-out: MIC
  MIC: 0.25 µg/mL (≈ 0.579 µM)
Staph. aureus; Staphylococcus aureus, Table II, strain S234, read-out: MIC
  MIC: 1 µg/mL (≈ 2.32 µM)
Staph. aureus; Staphylococcus aureus, Table II, strain S237, read-out: MIC
  MIC: 0.5 µg/mL (≈ 1.16 µM)
Staph. aureus; Staphylococcus aureus, Table II, strain S238, read-out: MIC
  MIC: 1 µg/mL (≈ 2.32 µM)
Staph. aureus; Staphylococcus aureus, Table II, strain S239, read-out: MIC
  MIC: 1 µg/mL (≈ 2.32 µM)
Staph. epi; [4]
  MIC: 0.5 µg/mL (≈ 1.16 µM)
Staph. epi; [5]
  MIC: 4 µg/mL (≈ 9.26 µM)
Staph. epi; Table II expanded spectrum, strain EPI1, read-out: MIC
  MIC: 8 µg/mL (≈ 18.5 µM)
Staph. epi; Table II, strain 269, read-out: MIC
  MIC: 4 µg/mL (≈ 9.26 µM)
Staph. epi; Table II, strain 270, read-out: MIC
  MIC: 4 µg/mL (≈ 9.26 µM)
Staph. epi; Table II, strain 285, read-out: MIC
  MIC: 2 µg/mL (≈ 4.63 µM)
Staph. epi; Table II, strain 286, read-out: MIC
  MIC: 1 µg/mL (≈ 2.32 µM)
Strep. A; read-out: MIC
  MIC: 0.06 µg/mL (≈ 0.139 µM)
Strep. PN
  MIC: 0.25 µg/mL (≈ 0.579 µM)
H. influ.; [7]
  MIC: 32 µg/mL (≈ 74.1 µM)
H. influ.; Table II, strain 76, read-out: MIC
  MIC: 16 µg/mL (≈ 37 µM)
H. influ.; Table II, strain 1930, read-out: MIC
  MIC: 16 µg/mL (≈ 37 µM)
H. influ.; Table II, strain C.L., read-out: MIC
  MIC: 32 µg/mL (≈ 74.1 µM)
H. influ.; Table II, strain HESS, read-out: MIC
  MIC: 32 µg/mL (≈ 74.1 µM)
H. influ.; Table II, strain M366, read-out: MIC
  MIC: > 64 µg/mL
H. influ.; Table II, strain R465, read-out: MIC
  MIC: 32 µg/mL (≈ 74.1 µM)
H. influ.; Table II, strain STEL, read-out: MIC
  MIC: > 64 µg/mL
Klebsiella; Klebsiella, read-out: MIC
  MIC: 8 µg/mL (≈ 18.5 µM)

## N[C@@H](C(=O)NC1C(=O)N2C(C(=O)O)=CCSC12)c1ccc2ccccc2c1 (stereo partly drawn) [Example 12, D-7-(2-Naphthylglycylamido)-3-cephem-4-carboxylic acid trifluoroacetate]
Staph. aureus; Staphylococcus aureus
  MIC: 4 µg/mL
Staph. aureus; [1]
  MIC: 64 µg/mL
Staph. aureus; [2]
  MIC: 64 µg/mL
Staph. epi; [4]
  MIC: 4 µg/mL
Staph. epi; [5]
  MIC: 32 µg/mL
Strep. A; read-out: MIC
  MIC: 0.5 µg/mL
Strep. PN
  MIC: 1 µg/mL
H. influ.; [6]
  MIC: 16 µg/mL
H. influ.; [7]
  MIC: 64 µg/mL
Klebsiella; Klebsiella, read-out: MIC
  MIC: 16 µg/mL
